Biological target: T1, HCV NS3/4A protease complex, J4L6S strain (Hepatitis C virus genotype 1b, UniProt O92972, C1454S/C1711G)
T1 construct: recombinant HCV NS3/4A protease complex (amino acids 1027 to 1711) for these strains; His tag (inferred from pET21b vector and Ni-NTA purification); made in house; host or cells: Escherichia coli BL21 (DE3), pET21b
Assay: FRET peptide assay to monitor HCV NS3/4A proteolytic activity (J4L6S strain)
Format: biochemical, HCV genotype 1b
Text: HCV NS3 protease complexes, derived from the BMS strain, H77 strain or J4L6S strain, were generated, as described below. These purified recombinant proteins were generated for use in a homogeneous assay (see below) to provide an indication of how effective compounds of the present disclosure would be in inhibiting HCV NS3 proteolytic activity.
Serum from an HCV-infected patient was obtained from Dr. T. Wright, San Francisco Hospital. An engineered full-length cDNA (compliment deoxyribonucleic acid) template of the HCV genome (BMS strain) was constructed from DNA fragments obtained by reverse transcription-PCR (RT-PCR) of serum RNA (ribonucleic acid) and using primers selected on the basis of homology between other genotype 1a strains. From the determination of the entire genome sequence, a genotype 1a was assigned to the HCV isolate according to the classification of Simmonds et al. (See P Simmonds, K A Rose, S Graham, S W Chan, F McOmish, B C Dow, E A Follett, P L Yap and H Marsden, J. Clin. Microbiol., 31(6), 1493-1503 (1993)). […]

T1 sequence (O92972 1027-1711 C1454S/C1711G, one chain of several): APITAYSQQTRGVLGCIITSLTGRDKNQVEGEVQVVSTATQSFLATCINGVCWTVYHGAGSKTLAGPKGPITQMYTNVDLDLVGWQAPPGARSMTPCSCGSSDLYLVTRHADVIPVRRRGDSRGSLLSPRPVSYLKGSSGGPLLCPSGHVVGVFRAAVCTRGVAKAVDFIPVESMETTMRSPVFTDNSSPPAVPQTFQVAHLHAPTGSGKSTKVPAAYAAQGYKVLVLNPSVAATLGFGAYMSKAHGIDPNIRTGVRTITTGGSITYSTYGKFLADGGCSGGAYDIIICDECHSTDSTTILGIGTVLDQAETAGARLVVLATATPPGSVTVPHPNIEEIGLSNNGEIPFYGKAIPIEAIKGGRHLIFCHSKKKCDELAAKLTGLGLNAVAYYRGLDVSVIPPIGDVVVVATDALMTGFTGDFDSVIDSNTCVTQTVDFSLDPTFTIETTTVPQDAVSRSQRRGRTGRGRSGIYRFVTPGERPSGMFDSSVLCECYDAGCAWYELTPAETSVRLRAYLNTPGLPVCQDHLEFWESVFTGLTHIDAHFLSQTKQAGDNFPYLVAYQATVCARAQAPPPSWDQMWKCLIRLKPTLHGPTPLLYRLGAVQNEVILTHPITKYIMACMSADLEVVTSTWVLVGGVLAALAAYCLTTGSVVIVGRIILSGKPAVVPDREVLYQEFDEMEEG

COc1c(O[C@@H]2C[C@H]3C(=O)N[C@]4(C(=O)NS(=O)(=O)C5CC5)C[C@H]4/C=C\CCCCC[C@H](NC(=O)OC(C)(C)C)C(=O)N3C2)ccc2c(Cl)nccc12 [Compound 3]
IC50: 0.47 nM
